Results reported in patent US5750553A, “Optionally substituted phenylimidazolidines, their preparation process and intermediates, their use as medicaments and the pharmaceutical compositions containing them” (Roussel Uclaf, priority 1994, dated 1998).

What was measured:
[1] = system: renal ornithine decarboxylase (ODC); test: Determination of the androgen or anti-androgen activity using dosage of ornithine decarboxylase (ODC) in castrated mice receiving testosterone propionate; type: in vivo, male SWISS mice; settings: percutaneous route, 1.5 mg/kg in 10 μl; testosterone propionate 3 mg/kg sub-cutaneous; kidneys 20 hours after treatment
Description: 2) Determination of the androgen or anti-androgen activity of the products of the invention using dosage of ornithine decarboxylase (ODC).
20 hours after the treatments, the animals are sacrificed, the kidneys are removed, then homogenized at 0° C., using a teflon glass grinder in 10 volumes of Tris-HCl 50 mM (pH 7.4) buffer containing 250 μM of pyridoxal phosphate, 0.1 mM EDTA, and 5 mM of dithiothreitol. The homogenate is then centrifuged at 209,000 g for 30 minutes.
At 37° C., renal ornithine decarboxylase converts an isotopic mixture of unlabelled ornithine and tritiated ornithine into unlabelled putrescine and tritiated putrescine.
The putrescine is then collected on selective ion-exchange papers. After drying, the excess unconverted tritiated and unlabelled ornithine is eliminated by washing 3 times with 0.1M of ammonium hydroxide. The papers are dried, then the radioactivity is counted after addition of scintillating Aqualite.
The results are expressed as fmoles (10^-15 M) of tritiated putrescine formed/hour/mg of proteins.
Test: the products are administered by percutaneous route at 1.5 mg/kg in a volume of 10 μl.

androgen receptor = molecular target: T1, androgen receptor (Rattus norvegicus, UniProt P15207); test: Study of the affinity of the products of the invention for the androgen receptor (displacement of tritiated testosterone, rat prostate cytosol); type: binding, Male Sprague Dawley EOPS rats; settings: Incubation: 24 hours, 0° C., RBA=100 (CH)/(CX), testosterone = 100
T1 construct: the prostates are removed, weighed and homogenized at 0° C; from tissue; host or cells: prostate cytosol (209,000 g supernatant) of castrated male Sprague Dawley rats
T1 sequence (P15207 1-902): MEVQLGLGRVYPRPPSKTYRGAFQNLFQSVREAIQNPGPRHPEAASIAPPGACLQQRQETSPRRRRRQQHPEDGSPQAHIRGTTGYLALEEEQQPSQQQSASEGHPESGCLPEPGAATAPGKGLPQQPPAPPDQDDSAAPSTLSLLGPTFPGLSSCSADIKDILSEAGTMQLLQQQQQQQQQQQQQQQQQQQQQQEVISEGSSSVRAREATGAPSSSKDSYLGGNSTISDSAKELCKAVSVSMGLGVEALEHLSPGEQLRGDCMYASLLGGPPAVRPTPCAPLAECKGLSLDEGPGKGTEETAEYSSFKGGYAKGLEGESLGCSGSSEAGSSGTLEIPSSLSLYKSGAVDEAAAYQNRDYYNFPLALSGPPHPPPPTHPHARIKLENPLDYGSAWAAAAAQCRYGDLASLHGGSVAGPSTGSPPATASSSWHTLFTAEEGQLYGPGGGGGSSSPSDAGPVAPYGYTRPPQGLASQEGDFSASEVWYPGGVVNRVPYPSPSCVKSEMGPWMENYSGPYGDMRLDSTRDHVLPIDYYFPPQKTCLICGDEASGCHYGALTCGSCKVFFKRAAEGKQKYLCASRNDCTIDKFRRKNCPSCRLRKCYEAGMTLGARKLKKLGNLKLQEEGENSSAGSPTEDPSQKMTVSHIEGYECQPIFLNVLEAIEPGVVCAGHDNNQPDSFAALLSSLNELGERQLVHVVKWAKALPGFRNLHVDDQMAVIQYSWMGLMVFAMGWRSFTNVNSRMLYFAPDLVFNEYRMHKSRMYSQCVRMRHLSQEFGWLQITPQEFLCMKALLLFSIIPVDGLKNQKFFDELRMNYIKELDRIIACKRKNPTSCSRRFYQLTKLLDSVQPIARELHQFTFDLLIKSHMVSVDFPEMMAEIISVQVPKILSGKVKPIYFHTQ
Description: 1) Study of the affinity of the products of the invention for the androgen receptor
Male Sprague Dawley EOPS rats weighing 180-200 g, castrated 24 hours previously, are sacrificed, the prostates are removed, weighed and homogenized at 0° C. using a Potter glass, in a buffered solution (10 mM Tris, 0.25M saccharose, 0.1 mM PMSF (phenylmethanesulphonylfluoride), 20 mM sodium molybdate, HCl pH 7.4) to which is added extemporaneously 2 mM of DTT (DL dithiothreitol), at the rate of 1 g of tissue per 8 ml of buffer.
The homogenate is then ultracentrifuged at 0° C., for 30 minutes at 209,000 g. […] Calculation of the relative bond affinity (RBA).
The following 2 curves are drawn: the percentage of the bound tritiated hormone B/T as a function of the logarithm of the concentration of the unlabelled reference hormone and B/T as a function of the logarithm of the concentration of the unlabelled product tested. The straight line of the equation I50 =(B/Tmax+B/Tmin)/2 is determined. B/Tmax=% of the bound tritiated hormone for an incubation of this tritiated hormone at the concentration (T). B/Tmin=% of the bound tritiated hormone for an incubation of this tritiated hormone at the concentration (T) in the presence of a large excess of unlabelled hormone (2500.10^-9 M).
The intersections of the straight line I50 and the curves enable the concentrations of the unlabelled reference hormone (CH) and of the unlabelled tested product (CX) which inhibit by 50% the binding of the tritiated hormone on the receptor to be evaluated.

SMILES	% of inhibition of the ODC of the controls receiving only testosterone propionate [1] [%]	relative bond affinity (RBA) (androgen receptor)
CN1C(=O)N(c2ccc(C#N)c(C(F)(F)F)c2)C(=O)C1(C)CF (centres unmarked) [Example 6]	84	16
N#Cc1ccc(N2C(=O)NC(CO)(CO)C2=O)cc1C(F)(F)F [Example 26, 4-(4,4-bis(hydroxymethyl)-2,5-dioxo-1-imidazolidinyl)-2-(trifluoromethyl)-benzonitrile]		4
CC1(CO)C(=O)N(c2ccc(C#N)c(C(F)(F)F)c2)C(=O)N1CCF (centres unmarked) [Example 3, 4-(2,5-dioxo 3-(2-fluoroethyl) 4-(hydroxymethyl) 4-methyl 1-imidazolidinyl)2-(trifluoromethyl) benzonitrile]	47	6
